Results: the NIST ThermoML archive (doi:10.1021/je100851w)

Assay: xn = mol fraction of the nth substance listed
Details: Vibrating tube method

S [hydrogen sulfide] + CCC
Details | mass density [kg/m3]
263.11 K, 8 kPa, Gas, x1 = 0.2227 | 0.1
263.11 K, 159 kPa, Gas, x1 = 0.2227 | 3.1
263.11 K, 298 kPa, Gas, x1 = 0.2227 | 6.1
263.11 K, 438 kPa, Gas, x1 = 0.2227 | 9.1
263.11 K, 707 kPa, Liquid, x1 = 0.2227 | 571.2
263.11 K, 2357 kPa, Liquid, x1 = 0.2227 | 574.3
263.11 K, 4057 kPa, Liquid, x1 = 0.2227 | 577.3
263.11 K, 5814 kPa, Liquid, x1 = 0.2227 | 580.3
263.11 K, 7697 kPa, Liquid, x1 = 0.2227 | 583.3
263.11 K, 9735 kPa, Liquid, x1 = 0.2227 | 586.4
263.11 K, 11879 kPa, Liquid, x1 = 0.2227 | 589.5
263.11 K, 14087 kPa, Liquid, x1 = 0.2227 | 592.6
263.11 K, 16300 kPa, Liquid, x1 = 0.2227 | 595.6
263.11 K, 18708 kPa, Liquid, x1 = 0.2227 | 598.6
263.11 K, 21118 kPa, Liquid, x1 = 0.2227 | 601.6
263.11 K, 23736 kPa, Liquid, x1 = 0.2227 | 604.6
263.11 K, 26466 kPa, Liquid, x1 = 0.2227 | 607.7
263.11 K, 29282 kPa, Liquid, x1 = 0.2227 | 610.8
263.11 K, 32290 kPa, Liquid, x1 = 0.2227 | 613.9
263.11 K, 35311 kPa, Liquid, x1 = 0.2227 | 616.9
263.11 K, 38486 kPa, Liquid, x1 = 0.2227 | 620
263.11 K, 41881 kPa, Liquid, x1 = 0.2227 | 623.1
268.09 K, 9 kPa, Gas, x1 = 0.2691 | 0.2
268.09 K, 180 kPa, Gas, x1 = 0.2691 | 3.5
268.09 K, 335 kPa, Gas, x1 = 0.2691 | 6.7
268.09 K, 476 kPa, Gas, x1 = 0.2691 | 9.7
268.09 K, 818 kPa, Liquid, x1 = 0.2691 | 570
268.09 K, 2369 kPa, Liquid, x1 = 0.2691 | 573.1
268.09 K, 3999 kPa, Liquid, x1 = 0.2691 | 576.3
268.09 K, 5608 kPa, Liquid, x1 = 0.2691 | 579.3
268.09 K, 7451 kPa, Liquid, x1 = 0.2691 | 582.5
268.09 K, 9258 kPa, Liquid, x1 = 0.2691 | 585.5
268.09 K, 11262 kPa, Liquid, x1 = 0.2691 | 588.7
268.09 K, 13236 kPa, Liquid, x1 = 0.2691 | 591.8
268.09 K, 15455 kPa, Liquid, x1 = 0.2691 | 595
268.09 K, 17739 kPa, Liquid, x1 = 0.2691 | 598.2
268.09 K, 20006 kPa, Liquid, x1 = 0.2691 | 601.2
268.09 K, 22487 kPa, Liquid, x1 = 0.2691 | 604.4
268.09 K, 24903 kPa, Liquid, x1 = 0.2691 | 607.4
268.09 K, 27518 kPa, Liquid, x1 = 0.2691 | 610.5
268.09 K, 30199 kPa, Liquid, x1 = 0.2691 | 613.6
268.09 K, 33045 kPa, Liquid, x1 = 0.2691 | 616.7
268.09 K, 36027 kPa, Liquid, x1 = 0.2691 | 619.8
268.09 K, 39139 kPa, Liquid, x1 = 0.2691 | 622.9
293.28 K, 14 kPa, Gas, x1 = 0.2227 | 0.2
293.28 K, 186 kPa, Gas, x1 = 0.2227 | 3.3
293.28 K, 350 kPa, Gas, x1 = 0.2227 | 6.3
293.28 K, 509 kPa, Gas, x1 = 0.2227 | 9.4
293.28 K, 665 kPa, Gas, x1 = 0.2227 | 12.6
293.28 K, 804 kPa, Gas, x1 = 0.2227 | 15.6
293.28 K, 932 kPa, Gas, x1 = 0.2227 | 18.7
293.28 K, 1050 kPa, Gas, x1 = 0.2227 | 21.9
293.28 K, 3770 kPa, Liquid, x1 = 0.2227 | 518.4
293.28 K, 4686 kPa, Liquid, x1 = 0.2227 | 521.6
293.28 K, 5576 kPa, Liquid, x1 = 0.2227 | 524.8
293.28 K, 6556 kPa, Liquid, x1 = 0.2227 | 527.8
293.28 K, 7610 kPa, Liquid, x1 = 0.2227 | 530.9
293.28 K, 8755 kPa, Liquid, x1 = 0.2227 | 534.1
293.28 K, 9941 kPa, Liquid, x1 = 0.2227 | 537.3
293.28 K, 11195 kPa, Liquid, x1 = 0.2227 | 540.5
293.28 K, 12466 kPa, Liquid, x1 = 0.2227 | 543.5
293.28 K, 13825 kPa, Liquid, x1 = 0.2227 | 546.6
293.28 K, 15156 kPa, Liquid, x1 = 0.2227 | 549.6
293.28 K, 16605 kPa, Liquid, x1 = 0.2227 | 552.6
293.28 K, 18128 kPa, Liquid, x1 = 0.2227 | 555.6
293.28 K, 19790 kPa, Liquid, x1 = 0.2227 | 558.8
293.28 K, 21473 kPa, Liquid, x1 = 0.2227 | 561.9
293.28 K, 23224 kPa, Liquid, x1 = 0.2227 | 564.9
293.28 K, 25127 kPa, Liquid, x1 = 0.2227 | 568.1
293.28 K, 27137 kPa, Liquid, x1 = 0.2227 | 571.3
293.28 K, 29216 kPa, Liquid, x1 = 0.2227 | 574.5
293.28 K, 31365 kPa, Liquid, x1 = 0.2227 | 577.6
293.28 K, 33453 kPa, Liquid, x1 = 0.2227 | 580.6
293.28 K, 35831 kPa, Liquid, x1 = 0.2227 | 583.8
313.12 K, 202 kPa, Gas, x1 = 0.2691 | 3.3
313.12 K, 382 kPa, Gas, x1 = 0.2691 | 6.4
313.12 K, 558 kPa, Gas, x1 = 0.2691 | 9.5
313.12 K, 722 kPa, Gas, x1 = 0.2691 | 12.6
313.12 K, 878 kPa, Gas, x1 = 0.2691 | 15.7
313.12 K, 1040 kPa, Gas, x1 = 0.2691 | 19
313.12 K, 1178 kPa, Gas, x1 = 0.2691 | 22
313.12 K, 1322 kPa, Gas, x1 = 0.2691 | 25.3
313.12 K, 1455 kPa, Gas, x1 = 0.2691 | 28.5
313.12 K, 1580 kPa, Gas, x1 = 0.2691 | 31.7
313.12 K, 1693 kPa, Gas, x1 = 0.2691 | 34.9
313.12 K, 1773 kPa, Gas, x1 = 0.2691 | 37.9
313.12 K, 2189 kPa, Liquid, x1 = 0.2691 | 491.5
313.12 K, 2787 kPa, Liquid, x1 = 0.2691 | 494.6
313.12 K, 3465 kPa, Liquid, x1 = 0.2691 | 498
313.12 K, 4173 kPa, Liquid, x1 = 0.2691 | 501.2
313.12 K, 4917 kPa, Liquid, x1 = 0.2691 | 504.4
313.12 K, 5710 kPa, Liquid, x1 = 0.2691 | 507.6
313.12 K, 6516 kPa, Liquid, x1 = 0.2691 | 510.6
313.12 K, 7434 kPa, Liquid, x1 = 0.2691 | 513.9
313.12 K, 8423 kPa, Liquid, x1 = 0.2691 | 517.3
313.12 K, 9421 kPa, Liquid, x1 = 0.2691 | 520.5
313.12 K, 10495 kPa, Liquid, x1 = 0.2691 | 523.7
313.12 K, 11669 kPa, Liquid, x1 = 0.2691 | 527.1
313.12 K, 12933 kPa, Liquid, x1 = 0.2691 | 530.5
313.12 K, 14205 kPa, Liquid, x1 = 0.2691 | 533.7
313.12 K, 15491 kPa, Liquid, x1 = 0.2691 | 536.9
313.12 K, 16847 kPa, Liquid, x1 = 0.2691 | 540
313.12 K, 18303 kPa, Liquid, x1 = 0.2691 | 543.3
313.12 K, 19787 kPa, Liquid, x1 = 0.2691 | 546.4
313.12 K, 21354 kPa, Liquid, x1 = 0.2691 | 549.6
313.12 K, 22903 kPa, Liquid, x1 = 0.2691 | 552.6
313.12 K, 24556 kPa, Liquid, x1 = 0.2691 | 555.7
313.12 K, 26292 kPa, Liquid, x1 = 0.2691 | 558.8
313.12 K, 28082 kPa, Liquid, x1 = 0.2691 | 561.8
313.12 K, 29973 kPa, Liquid, x1 = 0.2691 | 564.9
313.12 K, 32005 kPa, Liquid, x1 = 0.2691 | 568.1
313.12 K, 34062 kPa, Liquid, x1 = 0.2691 | 571.2
313.12 K, 36163 kPa, Liquid, x1 = 0.2691 | 574.3
313.12 K, 38383 kPa, Liquid, x1 = 0.2691 | 577.4
333.22 K, 50 kPa, Gas, x1 = 0.2227 | 0.8
333.22 K, 260 kPa, Gas, x1 = 0.2227 | 4.1
333.22 K, 470 kPa, Gas, x1 = 0.2227 | 7.5
333.22 K, 671 kPa, Gas, x1 = 0.2227 | 10.9
333.22 K, 838 kPa, Gas, x1 = 0.2227 | 13.9
333.22 K, 995 kPa, Gas, x1 = 0.2227 | 16.9
333.22 K, 1186 kPa, Gas, x1 = 0.2227 | 20.5
333.22 K, 1363 kPa, Gas, x1 = 0.2227 | 24.1
333.22 K, 1512 kPa, Gas, x1 = 0.2227 | 27.2
333.22 K, 1663 kPa, Gas, x1 = 0.2227 | 30.6
333.22 K, 1805 kPa, Gas, x1 = 0.2227 | 33.9
333.22 K, 1931 kPa, Gas, x1 = 0.2227 | 37
